Our source for the IC50 values is patent US20190352288A1, “MATRIX METALLOPROTEINASE (MMP) INHIBITORS AND METHODS OF USE THEREOF” (Foresee Pharmaceuticals Co., Ltd., priority 2018, published 2019).

Type in all cases: biochemical
Holding throughout (details): Table 2 selectivity profile

Assay [1] concerns the target recombinant human MMP-10 (Homo sapiens, UniProt P09238). Description: MMP selectivity assay, MMP-10. The procedure:
(§1) The inhibitory effect of compounds on the rate of cleaving fluorogenic MMP substrate (Enzo, BML-P128) by recombinant human MMP-12 catalytic domain (Enzo, BML-SE138) was carried out by methods known in the art. Briefly, to each well of a 96-well black opaque plate, all the reagents were sequentially added by pipetting, and the final reaction contained 4 nM of recombinant human MMP-12 catalytic domain, 4 μM of fluorogenic MMP substrate, and various concentrations (0.15 nM to 10,000 nM) of tested compound dilutions in HEPES buffer (pH 7.5) containing 10 mM of CaCl2), 0.01% Brij® 35 (polyoxyethylene (23) lauryl ether), and 0.1 mg/ml of BSA.
(§2) The enzyme and compounds were pre-incubated on a shaker to mix in wells. After an hour of mixing, fluorogenic substrate was added to each well. Reaction without enzyme was used as a blank control in the plate. The plate was then fed into a plate reader to measure fluorescence intensity at Excitation/Emission wavelengths of 340 nm/440 nm every 10 mins for at least 1 hour at 37° C. The IC50 of each compound in MMP-12 inhibition was determined by using a readout obtained at time point 30 minutes.
(§3) The MMP selectivity assay was performed by using other recombinant human MMPs, including MMP-1, MMP-2, MMP-3, MMP-7, MMP-8, MMP-9, MMP-10, MMP-13, and MMP-14. The IC50 of the compounds for the other recombinant human MMPs was determined as described above in Example 1, and are shown in Table 2.

Assay [2] concerns the target recombinant human MMP-14 (Homo sapiens, UniProt P50281). Description: MMP selectivity assay, MMP-14. The method, then:
as §1, §2, §3

The target in assay [3] is recombinant human MMP-8 (Homo sapiens, UniProt P22894). Description: MMP selectivity assay, MMP-8. The method, then: as §1, §2, §3
recombinant human MMP-8, sequence (P22894 101-467): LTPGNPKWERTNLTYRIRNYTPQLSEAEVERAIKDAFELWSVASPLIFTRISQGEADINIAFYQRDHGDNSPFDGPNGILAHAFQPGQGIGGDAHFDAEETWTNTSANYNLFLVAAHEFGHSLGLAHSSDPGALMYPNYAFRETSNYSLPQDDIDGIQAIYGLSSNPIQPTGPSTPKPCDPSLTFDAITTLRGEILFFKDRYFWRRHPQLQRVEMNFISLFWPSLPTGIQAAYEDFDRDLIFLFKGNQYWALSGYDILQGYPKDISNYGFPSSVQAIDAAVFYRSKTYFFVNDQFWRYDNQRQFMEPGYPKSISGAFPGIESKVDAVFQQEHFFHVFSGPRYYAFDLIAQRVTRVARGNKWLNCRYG
For assay [4], the target named is T1, recombinant human MMP-1 (Homo sapiens, UniProt P03956).
T1 sequence (P03956 100-469): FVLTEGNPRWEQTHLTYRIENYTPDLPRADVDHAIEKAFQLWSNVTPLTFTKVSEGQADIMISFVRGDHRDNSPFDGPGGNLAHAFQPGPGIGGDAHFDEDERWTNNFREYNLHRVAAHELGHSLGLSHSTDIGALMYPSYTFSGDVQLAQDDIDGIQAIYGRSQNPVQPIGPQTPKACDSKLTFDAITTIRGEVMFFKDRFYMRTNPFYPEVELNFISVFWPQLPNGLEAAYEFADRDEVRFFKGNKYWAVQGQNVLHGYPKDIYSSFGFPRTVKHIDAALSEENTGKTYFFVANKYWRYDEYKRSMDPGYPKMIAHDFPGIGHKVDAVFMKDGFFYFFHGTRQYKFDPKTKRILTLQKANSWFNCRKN
Briefly: MMP selectivity assay, MMP-1. The method, then: as §1, §2, §3

Assay [5] has as its target T2, recombinant human MMP-7 (Homo sapiens, UniProt P09237).
T2 sequence (P09237 95-267): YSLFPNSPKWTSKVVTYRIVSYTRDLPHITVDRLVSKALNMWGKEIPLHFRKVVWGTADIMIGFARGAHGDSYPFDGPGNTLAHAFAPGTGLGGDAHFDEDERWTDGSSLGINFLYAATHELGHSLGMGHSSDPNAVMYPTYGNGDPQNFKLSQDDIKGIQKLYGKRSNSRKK
Description: MMP selectivity assay, MMP-7. The method, then: as §1, §2, §3

The target of assay [6] is recombinant human MMP-3 (Homo sapiens, UniProt P08254). Briefly: MMP selectivity assay, MMP-3. The procedure: as §1, §2, §3
recombinant human MMP-3, sequence (P08254 100-477): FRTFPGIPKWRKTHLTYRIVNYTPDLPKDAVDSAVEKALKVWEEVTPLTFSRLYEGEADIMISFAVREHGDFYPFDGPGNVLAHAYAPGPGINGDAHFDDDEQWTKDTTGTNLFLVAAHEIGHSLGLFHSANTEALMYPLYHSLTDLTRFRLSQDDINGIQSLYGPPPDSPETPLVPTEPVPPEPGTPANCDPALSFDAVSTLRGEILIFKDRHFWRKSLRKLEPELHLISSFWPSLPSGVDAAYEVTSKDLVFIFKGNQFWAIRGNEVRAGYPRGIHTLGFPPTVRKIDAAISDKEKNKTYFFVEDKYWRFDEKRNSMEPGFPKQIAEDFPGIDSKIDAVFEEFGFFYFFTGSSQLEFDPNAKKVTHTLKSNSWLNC
In assay [7] the target is recombinant human MMP-13 (Homo sapiens, UniProt P45452). Description: MMP selectivity assay, MMP-13. The method, then:
as §1, §2, §3

The target of assay [8] is T3, recombinant human MMP-2 (Homo sapiens, UniProt P08253).
T3 sequence (P08253 110-660): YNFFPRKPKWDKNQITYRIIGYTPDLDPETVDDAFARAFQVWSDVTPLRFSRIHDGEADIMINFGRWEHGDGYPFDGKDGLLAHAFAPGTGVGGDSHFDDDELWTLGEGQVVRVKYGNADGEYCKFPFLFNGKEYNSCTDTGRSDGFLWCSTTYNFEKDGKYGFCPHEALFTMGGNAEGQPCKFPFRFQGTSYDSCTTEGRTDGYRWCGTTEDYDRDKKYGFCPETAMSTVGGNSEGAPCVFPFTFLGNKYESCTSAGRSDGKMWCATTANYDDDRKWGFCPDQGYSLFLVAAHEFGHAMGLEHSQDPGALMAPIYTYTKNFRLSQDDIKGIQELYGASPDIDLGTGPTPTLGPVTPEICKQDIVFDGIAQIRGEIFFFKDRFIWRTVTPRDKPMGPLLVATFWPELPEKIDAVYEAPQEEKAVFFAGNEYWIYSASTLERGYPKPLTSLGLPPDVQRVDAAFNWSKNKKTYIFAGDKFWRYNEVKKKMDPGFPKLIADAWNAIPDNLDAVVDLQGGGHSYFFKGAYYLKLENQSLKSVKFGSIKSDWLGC
Briefly: MMP selectivity assay, MMP-2. The method, then: as §1, §2, §3

Assay [9] deals with recombinant human MMP-9 (Homo sapiens, UniProt P14780). Briefly: MMP selectivity assay, MMP-9. The method, then:
as §1, §2, §3

recombinant human MMP-10, sequence (P09238 99-476): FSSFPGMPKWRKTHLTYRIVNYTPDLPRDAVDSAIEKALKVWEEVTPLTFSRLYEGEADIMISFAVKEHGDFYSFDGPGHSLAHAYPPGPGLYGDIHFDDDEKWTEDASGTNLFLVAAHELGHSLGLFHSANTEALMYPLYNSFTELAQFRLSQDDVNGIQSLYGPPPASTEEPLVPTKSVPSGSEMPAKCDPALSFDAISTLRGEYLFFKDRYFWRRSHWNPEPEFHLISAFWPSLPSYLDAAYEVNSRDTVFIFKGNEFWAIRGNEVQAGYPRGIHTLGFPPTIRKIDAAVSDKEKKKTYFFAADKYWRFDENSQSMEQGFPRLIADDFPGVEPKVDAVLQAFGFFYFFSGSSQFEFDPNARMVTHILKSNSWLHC
recombinant human MMP-9, sequence (P14780 94-707): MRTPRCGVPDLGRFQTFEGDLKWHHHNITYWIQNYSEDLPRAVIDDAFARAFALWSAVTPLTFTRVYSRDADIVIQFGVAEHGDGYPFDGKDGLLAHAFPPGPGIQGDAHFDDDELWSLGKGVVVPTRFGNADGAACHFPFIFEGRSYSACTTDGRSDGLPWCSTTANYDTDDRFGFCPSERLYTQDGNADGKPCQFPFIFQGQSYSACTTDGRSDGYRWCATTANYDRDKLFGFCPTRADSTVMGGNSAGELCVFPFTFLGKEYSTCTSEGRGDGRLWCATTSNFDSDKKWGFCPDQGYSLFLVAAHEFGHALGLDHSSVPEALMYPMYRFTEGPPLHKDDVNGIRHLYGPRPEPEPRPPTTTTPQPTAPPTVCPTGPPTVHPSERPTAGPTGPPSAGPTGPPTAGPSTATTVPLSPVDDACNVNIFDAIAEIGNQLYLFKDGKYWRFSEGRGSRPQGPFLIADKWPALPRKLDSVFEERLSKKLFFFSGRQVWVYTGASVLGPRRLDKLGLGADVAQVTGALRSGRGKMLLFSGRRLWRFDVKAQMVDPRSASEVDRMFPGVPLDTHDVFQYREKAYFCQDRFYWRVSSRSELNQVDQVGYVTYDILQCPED

As for `Cc1cc(COc2ccc(Sc3ccncc3C3NC(=O)NC3=O)c(F)c2)ccn1` (stereo not drawn) [PC-50], the IC50 in assay [1] is 1000 to 10000 nM; in [2], 1000 to 10000 nM; in assay [3], 100 to 1000 nM; in [4] it was greater than 10000 nM; in assay [5], greater than 10000 nM; in [6], 100 to 1000 nM. The IC50 in assay [7] was 100 to 1000 nM; in assay [8], 100 to 1000 nM; in [9] it was 1000 to 10000 nM.

Consider `Cc1cc(COc2ccc(Sc3ccncc3C3NC(=O)NC3=O)c(Cl)c2)ccn1` (stereo not drawn) [PC-51], for which the IC50 is 1000 to 10000 nM in assay [1]; 1000 to 10000 nM in assay [2]; 100 to 1000 nM in [3]; greater than 10000 nM in assay [4]; 1000 to 10000 nM in [5]; 1000 to 10000 nM in assay [6]. For the same compound, the IC50 lay in the range of 100 to 1000 nM in assay [7], 1000 to 10000 nM in [8] and 1000 to 10000 nM in [9].

`O=C1NC(=O)C(c2sccc2Sc2ccc(OCc3cccc(CO)c3)cc2)N1` (stereo not drawn) [TC4]: the IC50 in assay [1] is 1000 to 10000 nM; in [2] it was 1000 to 10000 nM; in assay [3], 100 to 1000 nM; in assay [4], greater than 10000 nM; in [5], greater than 10000 nM; in assay [6] it was 100 to 1000 nM. Besides, the IC50 in assay [7], in assay [8] and in assay [9] was 1000 to 10000 nM in each case.

With `O=C1NC(=O)C(c2sccc2Sc2ccc(OCc3ccccc3CO)cc2)N1` (stereo not drawn) [TC5], the IC50 was 1000 to 10000 nM in assay [1]; greater than 10000 nM in [2]; 1000 to 10000 nM in [3]; greater than 10000 nM in assay [4]; greater than 10000 nM in assay [5]; 1000 to 10000 nM in assay [6]. In addition, the results for the IC50 in [7], in [8] and in assay [9] were greater than 10000 nM, 1000 to 10000 nM and 1000 to 10000 nM, respectively.

For the compound `Cc1cc(COc2ccc(Sc3ccsc3C3NC(=O)NC3=O)cc2)ccn1` (stereo not drawn) [TC8], the IC50 in assay [1] is 100 to 1000 nM; in assay [2], 100 to 1000 nM; in assay [3], 10 to 100 nM; in assay [4], greater than 10000 nM; in [5], 1000 to 10000 nM; in [6] it was 100 to 1000 nM. Also, the IC50 in assay [7] is 10 to 100 nM; in [8], 100 to 1000 nM; in assay [9], 100 to 1000 nM.

As usually defined, the IC50 is the midpoint of a concentration-inhibition curve.
